This note sets out measurements from patent US20170157150A1, “ORAL DOSAGE FORM COMPRISING TRI-SUBSTITUTED GLYCEROL COMPOUNDS” (Alphaptose GmbH, priority 2006, published 2017).

Data set [1] relates to LNCaP cells grown orthotopically in the prostates of nude mice. Kind of data set: Orthotopic LNCaP prostate tumor model, serum PSA and tumor volume (MRI). The note with it: 30 mg/kg body weight/day intraperitoneally for 15 days + radiation 5 Gray on day 7; preliminary study. Type of data set: in vivo. On the procedure: FIG. 4. Depicts the in vivo effects of 1-O-octadecyl-2-O-methyl-glycero-3-phosphocholine (30 mg/kg body weight/day administered intraperitoneally for 15 days: FIG. 4A), (ionizing) radiation (absorbed dose of 5 Gray units administered on day 7; FIG. 4C), and a combination thereof (FIG. 4B) on LNCaP cells grown orthotopically in the prostates of nude mice (seven mice/group). Tumor growth was assessed via determining the serum level of the prostate-specific antigen (PSA) using a commercially available test kit as well as the tumor volume by means of magnetic resonance imaging.
Additionally, in a preliminary study the in vivo effects of 1-O-octadecyl-2-O-methyl-glycero-3-phosphocholine (ionizing) radiation, and a combination thereof on LNCaP cells grown orthotopically in the prostates of nude mice (seven mice/group) was investigated.
1-O-octadecyl-2-O-methyl-glycero-3-phosphocholine was administered intraperitoneally in a dose of 30 mg/kg body weight/day administered intraperitoneally for 15 days (FIG. 4A; studies using different routes of administration such as orally or by gavage are currently under way). […] Tumor growth was assessed via determining the serum level of the prostate-specific antigen (PSA) using a commercially available test kit as well as the tumor volume by means of magnetic resonance imaging.

The test system of data set [2] is LNCaP androgen-sensitive human prostate adenocarcinoma cells. Put plainly: Apo-ONE Homogenous Caspase-3/7 Assay (apoptosis). It counts as cell-based. The method, then: (§1) FIG. 3. Depicts the in vitro effects of 1-O-octadecyl-2-O-methyl-glycero-3-phosphocholine (final concentration 10 μM), (ionizing) radiation (absorbed dose of 5 Gray units; indicated as “RT”), and a combination thereof on programmed cell death (apoptosis) and the survival rate of LNCaP androgen-sensitive human prostate adenocarcinoma cells. Apoptosis was determined using the Apo-ONE™ Homogenous Caspase-3/7 Assay, Promega, Inc., Madison, Wis., USA according to the manufacturer's instructions. The percentage of living cancer cells was estimated by means of trypan blue dye exclusion as described (Freshney, R. I. (1994) Culture of Animal Cells: A Manual of Basic Technique. 3rd Ed. Wiley-Liss. New York. USA). The cells were exposed to radiation six hours after (FIG. 3A), concomitantly with (FIG. 3B), or six hours before administration of 1-O-octadecyl-2-O-methyl-glycero-3-phospho-choline (FIG. 3C). The caspase assay was performed 12 hours after exposure to radiation. The respective data shown represent the average of two independent experiments.
(§2) First, the in vitro effects of 1-O-octadecyl-2-O-methyl-glycero-3-phosphocholine, (ionizing) radiation, and a combination thereof on programmed cell death (apoptosis) and the survival rate of LNCaP androgen-sensitive human prostate adenocarcinoma cells were measured. The LNCaP cell line was established from a metastatic lesion of the adenocarcinoma. The cells were treated with a final concentration of 10 μM 1-O-octadecyl-2-O-methyl-glycero-3-phosphocholine and (ionizing) radiation corresponding to an absorbed dose of 5 Gray units.
(§3) Apoptosis was determined using the Apo-ONE™ Homogenous Caspase-3/7 Assay, Promega, Inc., Madison, Wis., USA according to the manufacturer's instructions. The percentage of living tumor cells was estimated by means of trypan blue dye exclusion as described (Freshney, R. I. (1994) Culture of Animal Cells: A Manual of Basic Technique. 3rd Ed. Wiley-Liss. New York. USA)
(§4) The cells were exposed to radiation six hours after (FIG. 3A), concomitantly with (FIG. 3B), or six hours before administration of 1-O-octadecyl-2-O-methyl-glycero-3-phospho-choline (FIG. 3C). The caspase assay was performed 12 hours after exposure to radiation. The respective data shown represent the average of two independent experiments.
(§5) In a further approach, 10 μM 1-O-octadecyl-2-O-methyl-glycero-3-phosphocholine (final concentration; “CHEM”) and (ionizing) radiation (5 Gray units; “RT”) were administered simultaneously to the LNCaP cells but the subsequent incubation period was extended to 24 hours. Apoptosis was measured using the Apo-ONE™ Homogenous Caspase-3/7 Assay as described above and expressed as relative fluorescence units (RFLU). The percentage of apoptotic cells was determined by flow cytometric analysis of annexin V-PE positive-stained and 7-AAD (7-Amino ActinomycinD) negative-stained cells (both purchased from BD Biosciences, San Jose, Calif., USA) according to established standard protocols. The data represent means±SEM from three independent experiments.
(§6) Next, the interaction of 1-O-octadecyl-2-O-methyl-glycero-3-phosphocholine administration (“CHEM”) and androgen deprivation (“AD”) was investigated. LNCaP cells were deprived of androgen for two days by charcoal absorption of serum according to established procedures well known in the art. CHEM was added in a final concentration of 5 μM and 10 μM, respectively.
(§7) Apoptosis was measured using the Apo-ONE™ Homogenous Caspase-3/7 Assay as described above and expressed as relative fluorescence units (RFLU). The percentage of apoptotic cells was determined via annexin V-PE/7-AAD staining as described above. The caspase-3/7 assay and annexin staining were performed 22 hours after CHEM treatment.

The subject of data set [3] is LNCaP cells. Kind of data set: Flow cytometry of annexin V-PE positive / 7-AAD negative cells (apoptotic cells). It counts as cell-based, human. On the procedure: as §5, §6, §7
Data set [4] deals with LNCaP C4-2 cells. Put plainly: Apoptosis after CHEM+RT in androgen-insensitive cells. Type of data set: cell-based. To be noted: data not shown.
Data set [5] has as its system LNCaP androgen-sensitive human prostate adenocarcinoma cells. Kind of data set: Trypan blue dye exclusion, percentage of living tumor cells. Type of data set: cell-based. To be noted: for survival rate: untreated controls about 86%. The method, then: as §1, §2, §3, §4
The subject of data set [6] is LNCaP-Res cells. Put plainly: Apoptosis after CHEM+RT in androgen-insensitive cells. It counts as cell-based. To be noted: data not shown.
A short description of data set [7]: Differential scanning calorimetry, excipient compatibility. Type of data set: physicochemical. To be noted: crystalline compound, heating 5 K/min up to 300° C., cooling 1 K/min down to −30° C. On the procedure:
FIG. 1. Depicts the results of differential scanning calorimetry (DCS) analyses for determining excipient compatibility using a Netzsch DSC 204 apparatus (Netzsch Gerätebau GmbH, Selb, Germany) with a heating rate of 5 K/min up to 300° C. and a cooling rate of 1 K/min down to −30° C. (temperature onset at room temperature (approx. 20° C.)). The below-mentioned samples were tested: crystalline 1-O-octadecyl-2-O-methyl-glycero-3-phosphocholine alone (black curves), the following excipients alone (red curves): lactose (FIG. 1A), crospovidone (FIG. 1B), starch 1500 (FIG. 1C), siliciumdioxide (FIG. 1D), as well as magnesium stearate (FIG. 1E), and binary mixtures of 1-O-octadecyl-2-O-methyl-glycero-3-phosphocholine and each excipient (green curves).
Differential scanning calorimetry (DCS) analyses were performed for determining the compatibility of different excipients for formulating tablets according to the present invention.
DSC is a thermoanalytical technique in which the difference in the amount of heat required to increase the temperature of a sample and reference is measured as a function of temperature. Both the sample and reference are maintained at nearly the same temperature throughout the experiment. Generally, the temperature program for a DSC analysis is designed such that the temperature increases or decreases linearly as a function of time. […]

Setting [8] is: 10 μM CHEM + RT (5 Gray) simultaneously, 24 hours incubation, means±SEM, p<0.0001 vs CHEM and RT.
Setting [9] is: AD + R1881 (two days prior to CHEM) + 5 μM CHEM, 22 hours.
[10] abbreviates: AD + R1881 (two days prior to CHEM) + 10 μM CHEM, 22 hours.

Turning to `CCCCCCCCCCCCCCCCCCOCC(COP(=O)([O-])OCC[N+](C)(C)C)OC` (stereo not drawn) [1-O-octadecyl-2-O-methyl-glycero-3-phosphocholine], the “PSA serum levels, combined treatment compared to either individual treatment” value in data set [1] is given as “significant decrease”. Moreover, the “Caspase-3/7 activity (RFLU)” value came out at 1514 ± 102 RFLU in data set [2] (setting [8]); 580 ± 207 RFLU in data set [2] (10 μM CHEM alone, 24 hours incubation, means±SEM, three experiments, control 193 ± 39); 453 RFLU in data set [2] (setting [9]); 962 RFLU in data set [2] (setting [10]); 380 RFLU in data set [2] (Contr. cells + 5 μM CHEM, 22 hours after treatment, Contr. 235); 436 RFLU in data set [2] (Contr. cells + 10 μM CHEM, 22 hours after treatment, Contr. 235). Moreover, the “Caspase-3/7 activity (RFLU)” value was 126 RFLU in data set [2] (androgen deprivation (AD) two days + 5 μM CHEM, 22 hours, AD alone 81) and 115 RFLU in data set [2] (androgen deprivation (AD) two days + 10 μM CHEM, 22 hours, AD alone 81). For the same molecule, in data set [2] (10 μM compound six hours after radiation (5 Gray), FIG. 3C), the “extent of apoptosis, increase in cells only exposed to the chemical as compared to combined treatment” value is given as “about 25%”. In addition, the “increase in apoptotic response (caspase-3/7 assay)” value in data set [2] (10 μM compound six hours prior to radiation (5 Gray), combined treatment, assay 12 hours after radiation, FIG. 3A) was over 2.5 fold. The “% Annexin V-PE pos. cells” value in data set [3] (setting [8]) is 31.7 ± 1.0 %; in data set [3] (10 μM CHEM alone, 24 hours incubation, means±SEM, three experiments, control 3.6 ± 0.2) it was 18.6 ± 1.0%; in data set [3] (setting [9]), 14.6%; in data set [3] (setting [10]) it was 21.6%; in data set [3] (Contr. cells + 5 μM CHEM, 22 hours after treatment, Contr. 9.8) it was 13.0%; in data set [3] (Contr. cells + 10 μM CHEM, 22 hours after treatment, Contr. 9.8), 17.5%. Moreover, the “% Annexin V-PE pos. cells” value in data set [3] (androgen deprivation (AD) two days + 5 μM CHEM, 22 hours, AD alone 12.6) is recorded as 15.4%; in data set [3] (androgen deprivation (AD) two days + 10 μM CHEM, 22 hours, AD alone 12.6), 27.4%. In addition, the “apoptotic response in androgen-deprived LNCaP cells” value in data set [3] (androgen-deprived cells, 5 μM and 10 μM) is reported as “dose-dependent significant increase”. The “reversal of the apoptotic effect by synthetic androgen added prior to treatment” value in data set [3] (androgen-deprived cells, R1881 added two days prior) was “not reversed”. Besides, the “apoptosis in CHEM+RT treated cells” value in data set [4] and in data set [6] was “enhancement of apoptosis” each time. In data set [5] (10 μM compound alone, FIG. 3A experiment, untreated controls about 85%), the “survival rate of tumor cells” value is “about 60%”. Also, the survival rate result in data set [5] (10 μM compound alone, FIG. 3B experiment) is recorded as “about 50%”; in data set [5] (10 μM compound concomitantly with radiation (5 Gray), FIG. 3B), “about 55%”. In addition, the survival of cells entry in data set [5] (10 μM compound alone, FIG. 3C experiment) is recorded as “about 45%”; in data set [5] (10 μM compound six hours after radiation (5 Gray), combined treatment, FIG. 3C), “about 40%”. Also, the “survival of tumor cells” value in data set [5] (10 μM compound six hours prior to radiation (5 Gray), combined treatment, FIG. 3A, untreated controls about 85%) was “about 45%”.

In the case of `C[C@]1(O)CC[C@H]2[C@@H]3CCC4=CC(=O)CCC4=C3C=C[C@@]21C` [R1881], the “Caspase-3/7 activity (RFLU)” value in data set [2] (AD + R1881, no CHEM, AD alone 81) is 130 RFLU. Moreover, the “% Annexin V-PE pos. cells” value in data set [3] (AD + R1881, no CHEM, AD alone 12.6) is listed as 7.0%.

For `OC[C@H]1O[C@@H](O[C@H]2[C@H](O)[C@@H](O)C(O)O[C@@H]2CO)[C@H](O)[C@@H](O)[C@H]1O` (stereo partly drawn) [lactose], in data set [7], the “interaction of excipient with 1-O-octadecyl-2-O-methyl-glycero-3-phosphocholine (DSC thermogram of binary mixture)” value is “show such interactions”.

With magnesium stearate, in data set [7], the “interaction of excipient with 1-O-octadecyl-2-O-methyl-glycero-3-phosphocholine (DSC thermogram of binary mixture)” value was “dominate the thermogram”.
